In PubChem BioAssay AID1918931 (Molecular Pharmacology Branch, DTP, NCI, 2023):

Test system: 138582-337-R-J1-PDC complex spheroid viability
Test: Anticancer human tumor 138582-337-R-J1-PDC patient-derived Merkel cell tumor cell line growth inhibition
Conditions: for IC50: curve of first compound; for viability, T/C: stronger effect = lower value
From the text: Multicellular complex tumor spheroid response to LSD1 Inhibitor Iadademstat in combination with a variety of drugs and investigational agents in selected tumor cell lines
The current study was undertaken to assess response to LSD1 inhibitors in combination with standard-of-care drugs and investigational agents in solid tumor complex spheroid models as well as in the K-562 leukemia. Complex spheroids include a stromal component modeled by human endothelial cells (HUVEC) and fibroblasts modeled by human mesenchymal stem cells (MSCs). The concentration ranges selected for each drug and investigational agent were based upon clinically achievable concentrations if the clinical Cmax of the agent was known.
Compounds. The drugs and investigational agents used in this study are listed on Table 1. All of the agents used, including staurosporine (NSC755774) and gemcitabine (NSC613327), were obtained from the Developmental Therapeutics Program, NCI. FDA-approved anticancer drugs are available from the NCI at http://dtp.nci.nih.gov/branches/dscb/oncology_drugset_explanation.html. Drugs and investigational agents were >95% pure by proton nuclear magnetic resonance (NMR) and liquid chromatography/mass spectrometry (LC/MS). Stock solutions were prepared at 400x in DMSO, stored at -70 degrees C, and diluted in fresh medium prior to their use. The final concentration of DMSO in cell culture wells never exceeded 0.25% (v/v). The FDA-approved anticancer drug set is available from the Developmental Therapeutics Program at https://dtp.cancer.gov/organization/dscb/obtaining/available_plates.htm. All drugs and investigational agents were tested over a range starting from a high concentration at or near the clinical Cmax and decreasing in half-log increments. If the clinical Cmax for an agent had not been determined, the highest concentration tested was 10 microM.
Cell Lines. The patient-derived cancer cell (PDC) lines: 292921-168-R-J2-PDC, K24384-001-R-PDC, and 521955-158-R2-J5-PDC pancreatic carcinomas, 556581-035-R-J1 ovarian carcinoma, 324938-238-R-J1-PDC, 855422-203-R-J1-PDC and 883617-216-R-J1-PDC urothelial bladder carcinomas, 743489-274-T-PDC renal cell carcinoma, 138582-R-J1 Merkel cell tumor, K60290-347-R-J1 and K57222-313-R-J1-PDC glioblastomas, 653999-131-R-J2-PDC, LG0703-F948-PDC, and 349418-098-R-PDC non-small cell lung carcinomas, 885512-296-R-J2-PDC, 171881-019-R-J1-PDC breast carcinomas and 186277-243-T-J2-PDC and 233499-124-R-J2-PDC colon carcinomas were obtained from the NCI Patient-Derived Models Repository (PDMR, https://pdmr.cancer.gov). The established cell lines NCI/ADR-RES (RRID:CVCL_14520 and OVCAR-5 (RRID:CVCL_1628) ovarian carcinomas, 786-O (RRID:CVCL_1051) and A498 (RRID:CVCL_A498) renal cell carcinoma, NCI-H211 (ATCC, cat. CRL-5824; RRID:CVCL_1529), NCI-H196 (ATCC, cat. CRL-5823, RRID:CVCL_1509), SW 1271 (ATCC, cat. CRL-2177, RRID:CVCL_1716) and NCI-H1876 (ATCC, cat. CRL-5902, RRID:CVCL_1503) small cell lung carcinomas, MDA-MB-231 (RRID:CVCL_0062) and MDA-MB-468 (RRID:CVCL_0419)breast carcinomas (10-12). Pooled donor human umbilical vein endothelial cells (HUVEC, Lonza, cat. CC-2519) and human mesenchymal stem cells (hMSC, Lonza, cat. PT-2501) were purchased from Lonza (Walkersville, MD).
Cell Culture. All cells were maintained in an incubator at 37 degrees C and 5% CO2 with 95% humidity. The PDC lines were cultured according to standard operating procedures established by the NCI PDMR (https://pdmr.cancer.gov). Briefly all PDCs were thawed and cultured in Matrigel-coated flasks prepared with a working solution of 1X Ham's F-12 nutrient mix, without supplementation (Invitrogen, Waltham, MA, cat. 11765054), 100 U/mL penicillin-streptomycin (Invitrogen, cat. 15140122), and 2.5% Matrigel (Corning Inc., Corning, NY, cat. 354248) for the first three passages. […]

[1] = second compound 0.1 µM, first compound 0.000949 µM
[2] = second compound 0.1 µM, first compound 0.003 µM
[3] = second compound 0.1 µM, first compound 0.00949 µM
[4] = second compound 0.1 µM, first compound 0.03 µM
[5] = second compound 0.1 µM, first compound 0.0949 µM
[6] = second compound 0.1 µM, first compound 0.3 µM
[7] = second compound 0.316 µM, first compound 0.000949 µM
[8] = second compound 0.316 µM, first compound 0.003 µM
[9] = second compound 0.316 µM, first compound 0.00949 µM
[10] = second compound 0.316 µM, first compound 0.03 µM
[11] = second compound 0.316 µM, first compound 0.0949 µM
[12] = second compound 0.316 µM, first compound 0.3 µM
[13] = second compound 1 µM, first compound 0.000949 µM
[14] = second compound 1 µM, first compound 0.003 µM
[15] = second compound 1 µM, first compound 0.00949 µM
[16] = second compound 1 µM, first compound 0.03 µM
[17] = second compound 1 µM, first compound 0.0949 µM
[18] = second compound 1 µM, first compound 0.3 µM
[19] = second compound 3.16 µM, first compound 0.000949 µM
[20] = second compound 3.16 µM, first compound 0.003 µM
[21] = second compound 3.16 µM, first compound 0.00949 µM
[22] = second compound 3.16 µM, first compound 0.03 µM
[23] = second compound 3.16 µM, first compound 0.0949 µM
[24] = second compound 3.16 µM, first compound 0.3 µM
[25] = second compound 10 µM, first compound 0.000949 µM
[26] = second compound 10 µM, first compound 0.003 µM
[27] = second compound 10 µM, first compound 0.00949 µM
[28] = second compound 10 µM, first compound 0.03 µM
[29] = second compound 10 µM, first compound 0.0949 µM
[30] = second compound 10 µM, first compound 0.3 µM
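Further: spheroids exposed to agents for 7 days.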
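Wherever viability, T/C is given: 100% = DMSO vehicle control viability.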

SMILES | IC50 (second compound 0.1 µM) [nM] | IC50 (second compound 0.316 µM) [nM] | IC50 (second compound 1 µM) [nM] | IC50 (second compound 3.16 µM) [nM] | IC50 (second compound 10 µM) [nM] | viability, T/C [1] [%] | viability, T/C [2] [%] | viability, T/C [3] [%] | viability, T/C [4] [%] | viability, T/C [5] [%] | viability, T/C [6] [%] | viability, T/C [7] [%] | viability, T/C [8] [%] | viability, T/C [9] [%] | viability, T/C [10] [%] | viability, T/C [11] [%] | viability, T/C [12] [%] | viability, T/C [13] [%] | viability, T/C [14] [%] | viability, T/C [15] [%] | other results
CCc1c2c(nc3ccc(O)cc13)-c1cc3c(c(=O)n1C2)COC(=O)[C@]3(O)CC + NC1CC1c1ccc(-c2cccc(O)c2)cc1 | 4.56 | 2.69 | 3.28 | 4.01 | 5.59 | 64.6 | 65.2 | 23.9 | 0.24 | 0.19 | 0.2 | 73.8 | 45.9 | 23.5 | 0.59 | 0.13 | 0.24 | 57.1 | 51.3 | 23.9 | viability, T/C [16]: 0.3%; viability, T/C [17]: 0.16%; viability, T/C [18]: 0.21%; viability, T/C [19]: 78%; viability, T/C [20]: 57.7%; viability, T/C [21]: 25.3%; viability, T/C [22]: 0.56%; viability, T/C [23]: 0.14%; viability, T/C [24]: 0.23%; viability, T/C [25]: 82.4%; viability, T/C [26]: 68%; viability, T/C [27]: 34.7%; viability, T/C [28]: 0.44%; viability, T/C [29]: 0.21%; viability, T/C [30]: 0.33%
Nc1ccn(C2OC(CO)C(O)C2(F)F)c(=O)n1 (stereo not given) + NC1CC1c1ccc(-c2cccc(O)c2)cc1 | > 300 | > 300 | > 300 | > 300 | > 300 | 75.3 | 69.9 | 86.8 | 59 | 56 | 58.3 | 62.5 | 83.7 | 73.7 | 64.6 | 64.6 | 67.9 | 77.1 | 79.7 | 79.5 | viability, T/C [16]: 72.8%; viability, T/C [17]: 66.7%; viability, T/C [18]: 57.6%; viability, T/C [19]: 74.4%; viability, T/C [20]: 75.7%; viability, T/C [21]: 83.7%; viability, T/C [22]: 74.1%; viability, T/C [23]: 67.6%; viability, T/C [24]: 85%; viability, T/C [25]: 93.5%; viability, T/C [26]: 79%; viability, T/C [27]: 99.7%; viability, T/C [28]: 73.5%; viability, T/C [29]: 70.3%; viability, T/C [30]: 86.8%
